Laboratory results reported in ChEMBL document CHEMBL4649984, “CBP30, a selective CBP/p300 bromodomain inhibitor, suppresses human Th17 responses” (Proc Natl Acad Sci U S A, 2015).
“And” between values parts separate entries of the source, which are not always exact repeats. Identical values can stand only once.

How the values were obtained:
[1] = biological target: Protein polybromo-1 (Homo sapiens) (UniProt Q86U86); conditions: Compound concentration 10.0 uM, Protein concentration 2.0 uM
[2] = biological target: SWI/SNF-related matrix-associated actin-dependent regulator of chromatin subfamily A member 2 (Homo sapiens) (UniProt P51531); conditions: Compound concentration 10.0 uM, Protein concentration 2.0 uM
[3] = biological target: CREB-binding protein (Homo sapiens) (UniProt Q92793); conditions: Compound concentration 10.0 uM, Protein concentration 2.0 uM
[4] = biological target: PH-interacting protein (Homo sapiens) (UniProt Q8WWQ0); conditions: Compound concentration 10.0 uM, Protein concentration 2.0 uM
[5] = biological target: Histone acetyltransferase p300 (Homo sapiens) (UniProt Q09472); assay: Thermal Shift Assay. Domain start/stop: A1040-S1171; conditions: Compound concentration 10.0 uM, Protein concentration 2.0 uM
[6] = biological target: Protein polybromo-1 (Homo sapiens) (UniProt Q86U86); conditions: Compound concentration 10.0 uM, Protein concentration 2.0 uM; remark: listed apart in the source
[7] = biological target: Bromodomain and WD repeat-containing protein 3 (Homo sapiens) (UniProt Q6RI45); conditions: Compound concentration 10.0 uM, Protein concentration 2.0 uM
[8] = biological target: Bromodomain adjacent to zinc finger domain protein 2B (Homo sapiens) (UniProt Q9UIF8); conditions: Compound concentration 10.0 uM, Protein concentration 2.0 uM
[9] = biological target: Chromatin remodeling regulator CECR2 (Homo sapiens) (UniProt Q9BXF3); conditions: Compound concentration 20.0 uM, Protein concentration 12.5 uM
[10] = biological target: ATPase family AAA domain-containing protein 2B (Homo sapiens) (UniProt Q9ULI0); conditions: Compound concentration 10.0 uM, Protein concentration 2.0 uM
[11] = biological target: Bromodomain adjacent to zinc finger domain protein 2B (Homo sapiens) (UniProt Q9UIF8); assay: Alphascreen assay. Domain start/stop: S1858-S1972; conditions: Compound concentration 25.0 uM, Protein concentration 25.0 uM
[12] = biological target: ATPase family AAA domain-containing protein 2 (Homo sapiens) (UniProt Q6PL18); conditions: Compound concentration 25.0 uM, Protein concentration 200.0 uM
Description: Alphascreen assay. Domain start/stop: Q981-R1108

[13] = biological target: Protein polybromo-1 (Homo sapiens) (UniProt Q86U86); conditions: Compound concentration 10.0 uM, Protein concentration 2.0 uM; remark: listed apart in the source
[14] = biological target: Transcription intermediary factor 1-alpha (Homo sapiens) (UniProt O15164); conditions: Compound concentration 10.0 uM, Protein concentration 2.0 uM
[15] = biological target: Nuclear body protein SP140-like protein (Homo sapiens) (UniProt Q9H930); conditions: Compound concentration 10.0 uM, Protein concentration 2.0 uM
[16] = biological target: Histone acetyltransferase KAT2B (Homo sapiens) (UniProt Q92831); conditions: Compound concentration 10.0 uM, Protein concentration 2.0 uM
[17] = biological target: Bromodomain-containing protein 2 (Homo sapiens) (UniProt P25440); conditions: Compound concentration 10.0 uM, Protein concentration 2.0 uM
[18] = biological target: Bromodomain testis-specific protein (Homo sapiens) (UniProt Q58F21); conditions: Compound concentration 10.0 uM, Protein concentration 2.0 uM
[19] = biological target: Bromodomain-containing protein 9 (Homo sapiens) (UniProt Q9H8M2); conditions: Compound concentration 10.0 uM, Protein concentration 2.0 uM
[20] = biological target: ATPase family AAA domain-containing protein 2 (Homo sapiens) (UniProt Q6PL18); conditions: Compound concentration 10.0 uM, Protein concentration 2.0 uM
[21] = biological target: Nucleosome-remodeling factor subunit BPTF (Homo sapiens) (UniProt Q12830); conditions: Compound concentration 10.0 uM, Protein concentration 2.0 uM
[22] = biological target: Protein polybromo-1 (Homo sapiens) (UniProt Q86U86); assay: Thermal Shift Assay. Domain start/stop: H23-D159; conditions: Compound concentration 10.0 uM, Protein concentration 2.0 uM
[23] = biological target: Bromodomain-containing protein 2 (Homo sapiens) (UniProt P25440); conditions: Compound concentration 10.0 uM, Protein concentration 2.0 uM; remark: listed apart in the source
[24] = biological target: Histone-lysine N-methyltransferase ASH1L (Homo sapiens) (UniProt Q9NR48); conditions: Compound concentration 10.0 uM, Protein concentration 2.0 uM
[25] = biological target: Transcription initiation factor TFIID subunit 1 (Homo sapiens) (UniProt P21675); conditions: Compound concentration 10.0 uM, Protein concentration 2.0 uM
[26] = biological target: Transcription intermediary factor 1-beta (Homo sapiens) (UniProt Q13263); conditions: Compound concentration 10.0 uM, Protein concentration 2.0 uM
[27] = biological target: Tripartite motif-containing protein 66 (Homo sapiens) (UniProt O15016); assay: Thermal Shift Assay. Domain start/stop: M1091-S1218; conditions: Compound concentration 10.0 uM, Protein concentration 2.0 uM
[28] = biological target: Nuclear body protein SP140 (Homo sapiens) (UniProt Q13342); conditions: Compound concentration 10.0 uM, Protein concentration 2.0 uM
[29] = biological target: Peregrin (Homo sapiens) (UniProt P55201); conditions: Compound concentration 10.0 uM, Protein concentration 2.0 uM
[30] = biological target: Protein polybromo-1 (Homo sapiens) (UniProt Q86U86); assay: Thermal Shift Assay. Domain start/stop: R487-D598; conditions: Compound concentration 10.0 uM, Protein concentration 2.0 uM
[31] = biological target: Histone acetyltransferase KAT2A (Homo sapiens) (UniProt Q92830); conditions: Compound concentration 10.0 uM, Protein concentration 2.0 uM
[32] = biological target: Bromodomain-containing protein 3 (Homo sapiens) (UniProt Q15059); conditions: Compound concentration 10.0 uM, Protein concentration 2.0 uM
[33] = biological target: Chromatin remodeling regulator CECR2 (Homo sapiens) (UniProt Q9BXF3); conditions: Compound concentration 10.0 uM, Protein concentration 2.0 uM
[34] = biological target: Bromodomain adjacent to zinc finger domain protein 1A (Homo sapiens) (UniProt Q9NRL2); conditions: Compound concentration 10.0 uM, Protein concentration 2.0 uM
[35] = biological target: Peregrin (Homo sapiens) (UniProt P55201); conditions: Compound concentration 10.0 uM, Protein concentration 2.0 uM; remark: listed apart in the source
[36] = biological target: T1, Bromodomain-containing protein 4 (Homo sapiens, UniProt O60885); assay: Alphascreen assay. Binding to BRD4A (domain start/stop: N44-E168) by alphascreen assay
[37] = biological target: Bromodomain-containing protein 1 (Homo sapiens) (UniProt O95696); conditions: Compound concentration 10.0 uM, Protein concentration 2.0 uM
[38] = biological target: Transcription initiation factor TFIID subunit 1-like (Homo sapiens) (UniProt Q8IZX4); conditions: Compound concentration 10.0 uM, Protein concentration 2.0 uM
[39] = biological target: T1, Bromodomain-containing protein 4; conditions: Compound concentration 10.0 uM, Protein concentration 2.0 uM
[40] = biological target: Protein polybromo-1 (Homo sapiens) (UniProt Q86U86); conditions: Compound concentration 10.0 uM, Protein concentration 2.0 uM; remark: listed apart in the source
[41] = biological target: Bromodomain and PHD finger-containing protein 3 (Homo sapiens) (UniProt Q9ULD4); conditions: Compound concentration 10.0 uM, Protein concentration 2.0 uM
[42] = biological target: Bromodomain-containing protein 3 (Homo sapiens) (UniProt Q15059); assay: Thermal Shift Assay. Domain start/stop: P24-E144; conditions: Compound concentration 10.0 uM, Protein concentration 2.0 uM
[43] = biological target: Bromodomain testis-specific protein (Homo sapiens) (UniProt Q58F21); conditions: Compound concentration 10.0 uM, Protein concentration 2.0 uM; remark: listed apart in the source
[44] = biological target: Bromodomain adjacent to zinc finger domain protein 2A (Homo sapiens) (UniProt Q9UIF9); conditions: Compound concentration 10.0 uM, Protein concentration 2.0 uM
[45] = biological target: SWI/SNF-related matrix-associated actin-dependent regulator of chromatin subfamily A member 4 (Homo sapiens) (UniProt P51532); conditions: Compound concentration 10.0 uM, Protein concentration 2.0 uM
[46] = biological target: Histone acetyltransferase p300 (Homo sapiens) (UniProt Q09472); conditions: Compound concentration 10.0 uM, Protein concentration 2.0 uM
[47] = biological target: Bromodomain and WD repeat-containing protein 1 (Homo sapiens) (UniProt Q9NSI6); conditions: Compound concentration 10.0 uM, Protein concentration 2.0 uM
[48] = biological target: PH-interacting protein (Homo sapiens) (UniProt Q8WWQ0); conditions: Compound concentration 50.0 uM, Protein concentration 0.025 uM
[49] = biological target: Transcription initiation factor TFIID subunit 1-like (Homo sapiens) (UniProt Q8IZX4); conditions: Compound concentration 10.0 uM, Protein concentration 2.0 uM; remark: listed apart in the source
[50] = biological target: Transcription initiation factor TFIID subunit 1 (Homo sapiens) (UniProt P21675); conditions: Compound concentration 10.0 uM, Protein concentration 2.0 uM; remark: listed apart in the source

Chromatin remodeling regulator CECR2 (Homo sapiens), sequence (Q9BXF3 whole entry, looked up, the tested form may be a part): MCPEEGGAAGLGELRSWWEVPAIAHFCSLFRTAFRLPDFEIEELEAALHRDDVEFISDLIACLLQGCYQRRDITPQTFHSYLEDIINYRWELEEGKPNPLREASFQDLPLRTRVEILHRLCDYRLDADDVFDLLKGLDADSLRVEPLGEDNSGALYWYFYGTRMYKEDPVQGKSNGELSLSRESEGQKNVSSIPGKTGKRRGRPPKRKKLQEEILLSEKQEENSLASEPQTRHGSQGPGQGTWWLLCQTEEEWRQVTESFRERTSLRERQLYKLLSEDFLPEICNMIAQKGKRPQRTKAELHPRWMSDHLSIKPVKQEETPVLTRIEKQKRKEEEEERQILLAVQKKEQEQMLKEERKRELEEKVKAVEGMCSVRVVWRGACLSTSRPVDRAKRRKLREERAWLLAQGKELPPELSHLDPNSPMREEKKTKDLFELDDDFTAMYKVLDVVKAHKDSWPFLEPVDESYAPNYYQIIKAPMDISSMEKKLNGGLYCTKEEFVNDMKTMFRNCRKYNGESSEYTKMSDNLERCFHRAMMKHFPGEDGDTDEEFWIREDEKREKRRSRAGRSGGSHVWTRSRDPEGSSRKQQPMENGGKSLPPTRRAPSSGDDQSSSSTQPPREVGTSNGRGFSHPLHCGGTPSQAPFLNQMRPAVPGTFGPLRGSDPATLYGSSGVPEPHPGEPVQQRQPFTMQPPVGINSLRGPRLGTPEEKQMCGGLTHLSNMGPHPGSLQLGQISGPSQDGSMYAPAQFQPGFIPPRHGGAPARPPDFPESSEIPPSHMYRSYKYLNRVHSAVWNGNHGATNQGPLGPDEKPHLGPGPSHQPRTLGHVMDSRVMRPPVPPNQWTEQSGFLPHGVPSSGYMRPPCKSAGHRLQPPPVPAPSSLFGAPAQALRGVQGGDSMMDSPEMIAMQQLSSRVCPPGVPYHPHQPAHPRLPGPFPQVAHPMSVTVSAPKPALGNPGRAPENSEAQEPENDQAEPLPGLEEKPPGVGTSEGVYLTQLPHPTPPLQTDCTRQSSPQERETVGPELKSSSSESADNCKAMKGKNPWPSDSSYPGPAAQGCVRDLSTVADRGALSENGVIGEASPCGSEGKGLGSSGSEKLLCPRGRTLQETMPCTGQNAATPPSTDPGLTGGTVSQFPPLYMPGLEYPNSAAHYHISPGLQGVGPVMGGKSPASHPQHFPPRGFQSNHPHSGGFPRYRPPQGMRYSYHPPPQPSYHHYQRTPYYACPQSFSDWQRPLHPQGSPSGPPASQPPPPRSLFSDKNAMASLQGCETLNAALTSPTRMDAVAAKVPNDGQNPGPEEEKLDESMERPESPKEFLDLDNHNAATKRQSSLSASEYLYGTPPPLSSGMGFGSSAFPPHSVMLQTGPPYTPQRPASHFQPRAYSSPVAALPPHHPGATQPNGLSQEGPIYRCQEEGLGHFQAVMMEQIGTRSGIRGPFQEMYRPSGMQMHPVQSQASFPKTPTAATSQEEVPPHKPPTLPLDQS
Transcription initiation factor TFIID subunit 1 (Homo sapiens), sequence (P21675 whole entry): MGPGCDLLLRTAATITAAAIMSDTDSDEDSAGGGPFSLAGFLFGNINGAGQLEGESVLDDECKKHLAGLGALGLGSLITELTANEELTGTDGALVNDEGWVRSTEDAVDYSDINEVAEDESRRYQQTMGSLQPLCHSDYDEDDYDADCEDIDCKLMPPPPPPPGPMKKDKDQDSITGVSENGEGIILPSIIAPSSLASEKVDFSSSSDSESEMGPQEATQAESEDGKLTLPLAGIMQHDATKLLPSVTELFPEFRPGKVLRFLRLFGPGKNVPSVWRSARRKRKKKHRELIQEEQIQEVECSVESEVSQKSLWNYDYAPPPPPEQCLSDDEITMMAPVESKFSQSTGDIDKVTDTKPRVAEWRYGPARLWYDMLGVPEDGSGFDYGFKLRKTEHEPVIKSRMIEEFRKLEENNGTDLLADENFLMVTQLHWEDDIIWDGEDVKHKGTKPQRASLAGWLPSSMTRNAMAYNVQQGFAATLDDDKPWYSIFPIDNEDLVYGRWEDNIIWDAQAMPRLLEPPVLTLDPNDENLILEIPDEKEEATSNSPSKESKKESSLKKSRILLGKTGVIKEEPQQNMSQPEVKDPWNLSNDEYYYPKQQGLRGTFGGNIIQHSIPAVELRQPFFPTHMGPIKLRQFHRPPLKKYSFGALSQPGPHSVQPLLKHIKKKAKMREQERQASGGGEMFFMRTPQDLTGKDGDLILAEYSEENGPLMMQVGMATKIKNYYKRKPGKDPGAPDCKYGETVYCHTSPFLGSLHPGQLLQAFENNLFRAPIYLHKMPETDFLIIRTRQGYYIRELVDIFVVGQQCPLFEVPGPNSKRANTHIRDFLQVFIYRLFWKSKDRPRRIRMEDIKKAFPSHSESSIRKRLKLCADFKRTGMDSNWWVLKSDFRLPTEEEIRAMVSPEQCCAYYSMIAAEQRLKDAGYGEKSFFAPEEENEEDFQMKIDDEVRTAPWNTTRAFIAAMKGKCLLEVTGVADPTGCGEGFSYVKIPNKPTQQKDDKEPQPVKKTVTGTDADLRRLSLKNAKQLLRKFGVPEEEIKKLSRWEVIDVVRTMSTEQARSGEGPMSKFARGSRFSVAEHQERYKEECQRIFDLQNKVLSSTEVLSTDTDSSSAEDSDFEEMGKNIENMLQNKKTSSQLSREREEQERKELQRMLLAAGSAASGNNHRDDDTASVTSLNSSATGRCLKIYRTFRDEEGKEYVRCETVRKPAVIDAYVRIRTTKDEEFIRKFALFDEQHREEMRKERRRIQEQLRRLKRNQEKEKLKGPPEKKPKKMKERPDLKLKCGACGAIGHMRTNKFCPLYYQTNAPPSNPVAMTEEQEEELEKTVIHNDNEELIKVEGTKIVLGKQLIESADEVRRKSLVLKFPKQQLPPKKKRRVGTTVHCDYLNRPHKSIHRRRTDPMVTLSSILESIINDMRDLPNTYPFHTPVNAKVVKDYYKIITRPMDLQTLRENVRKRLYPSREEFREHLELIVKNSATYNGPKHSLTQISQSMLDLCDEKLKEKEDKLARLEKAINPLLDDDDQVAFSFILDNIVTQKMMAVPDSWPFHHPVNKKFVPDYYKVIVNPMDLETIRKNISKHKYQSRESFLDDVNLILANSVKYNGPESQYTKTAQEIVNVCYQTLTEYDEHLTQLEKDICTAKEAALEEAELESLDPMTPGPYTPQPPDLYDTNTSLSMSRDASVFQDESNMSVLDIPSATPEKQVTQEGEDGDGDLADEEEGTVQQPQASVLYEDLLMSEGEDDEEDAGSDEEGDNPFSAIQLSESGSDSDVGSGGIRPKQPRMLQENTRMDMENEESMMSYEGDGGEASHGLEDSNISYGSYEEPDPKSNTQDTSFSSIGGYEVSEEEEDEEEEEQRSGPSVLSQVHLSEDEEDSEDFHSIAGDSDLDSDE
Protein polybromo-1 (Homo sapiens), sequence (Q86U86 whole entry): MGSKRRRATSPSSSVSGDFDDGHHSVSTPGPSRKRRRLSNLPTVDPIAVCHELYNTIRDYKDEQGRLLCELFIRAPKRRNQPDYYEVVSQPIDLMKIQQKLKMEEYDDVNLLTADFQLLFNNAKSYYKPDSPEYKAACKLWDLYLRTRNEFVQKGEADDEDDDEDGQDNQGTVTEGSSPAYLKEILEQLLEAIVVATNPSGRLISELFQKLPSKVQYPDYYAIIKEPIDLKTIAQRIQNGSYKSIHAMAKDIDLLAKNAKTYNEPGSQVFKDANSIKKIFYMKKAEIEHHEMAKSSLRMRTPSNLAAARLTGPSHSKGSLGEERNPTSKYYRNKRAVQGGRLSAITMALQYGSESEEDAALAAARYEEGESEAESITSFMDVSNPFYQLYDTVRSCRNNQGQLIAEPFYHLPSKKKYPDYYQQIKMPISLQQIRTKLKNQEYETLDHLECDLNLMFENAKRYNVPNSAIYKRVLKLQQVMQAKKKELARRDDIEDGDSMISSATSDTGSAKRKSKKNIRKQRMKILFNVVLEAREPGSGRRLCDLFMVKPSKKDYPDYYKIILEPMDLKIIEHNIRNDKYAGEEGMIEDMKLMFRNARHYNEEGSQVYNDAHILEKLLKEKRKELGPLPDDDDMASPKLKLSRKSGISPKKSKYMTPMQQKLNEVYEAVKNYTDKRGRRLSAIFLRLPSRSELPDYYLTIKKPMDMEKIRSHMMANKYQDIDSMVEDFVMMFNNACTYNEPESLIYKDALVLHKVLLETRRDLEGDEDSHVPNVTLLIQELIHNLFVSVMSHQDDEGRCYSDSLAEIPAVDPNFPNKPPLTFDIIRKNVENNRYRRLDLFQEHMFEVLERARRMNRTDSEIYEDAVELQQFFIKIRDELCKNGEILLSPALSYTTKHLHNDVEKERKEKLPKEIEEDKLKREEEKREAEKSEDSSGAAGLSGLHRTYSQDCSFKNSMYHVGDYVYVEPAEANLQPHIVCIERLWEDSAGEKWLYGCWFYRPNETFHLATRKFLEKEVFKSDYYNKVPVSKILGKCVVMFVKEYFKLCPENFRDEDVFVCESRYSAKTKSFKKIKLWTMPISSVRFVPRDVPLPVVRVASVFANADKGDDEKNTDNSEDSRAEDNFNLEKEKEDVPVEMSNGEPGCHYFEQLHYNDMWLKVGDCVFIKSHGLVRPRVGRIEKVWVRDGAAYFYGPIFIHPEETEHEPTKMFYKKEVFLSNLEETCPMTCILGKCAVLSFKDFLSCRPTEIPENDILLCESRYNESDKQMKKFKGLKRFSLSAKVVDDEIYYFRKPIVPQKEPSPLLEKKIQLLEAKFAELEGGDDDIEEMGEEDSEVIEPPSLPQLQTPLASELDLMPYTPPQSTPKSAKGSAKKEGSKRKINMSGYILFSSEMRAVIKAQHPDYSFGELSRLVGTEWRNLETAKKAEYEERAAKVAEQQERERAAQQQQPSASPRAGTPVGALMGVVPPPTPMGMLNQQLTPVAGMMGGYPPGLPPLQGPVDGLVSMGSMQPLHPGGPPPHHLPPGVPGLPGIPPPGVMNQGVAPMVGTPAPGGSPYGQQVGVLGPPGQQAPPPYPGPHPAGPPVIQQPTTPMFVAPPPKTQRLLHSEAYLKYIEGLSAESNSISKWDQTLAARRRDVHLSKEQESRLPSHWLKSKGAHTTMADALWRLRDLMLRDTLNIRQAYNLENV

- ΔTm [1]: 0.23 °C
- ΔTm [2]: 0.06 °C
- ΔTm [3]: 10.2 °C and 9.55 °C
- ΔTm [4]: 0.57 °C
- ΔTm [5]: 9.68 °C
- ΔTm [6]: 0.46 °C
- ΔTm [7]: 0.97 °C
- ΔTm [8]: 0.17 °C
- inhibition [9]: 58.8%
- ΔTm [10]: 0.45 °C
- inhibition [11]: 24%
- inhibition [12]: 24.4%
- ΔTm [13]: 0.12 °C
- ΔTm [14]: 0.67 °C
- ΔTm [15]: 0.17 °C
- ΔTm [16]: 0.46 °C
- ΔTm [17]: 1.41 °C
- ΔTm [18]: 0.66 °C
- ΔTm [19]: -0.12 °C and -0.5 °C
- ΔTm [20]: -2.5 °C
- ΔTm [21]: 0.21 °C and -1.05 °C
- ΔTm [22]: 0.03 °C
- ΔTm [23]: 0.99 °C
- ΔTm [24]: -0.29 °C
- ΔTm [25]: -0.12 °C
- ΔTm [26]: 0.49 °C and -0.34 °C
- ΔTm [27]: 0.82 °C
- ΔTm [28]: 0.37 °C
- ΔTm [29]: 0.42 °C
- ΔTm [30]: 0.23 °C
- ΔTm [31]: 0.17 °C
- ΔTm [32]: 1.25 °C
- ΔTm [33]: 0.18 °C and 1.55 °C
- ΔTm [34]: -0.45 °C
- ΔTm [35]: 1.46 °C
- IC50 [36]: 27.8 µM and 7.12 µM
- ΔTm [37]: 0.43 °C and 0.36 °C
- ΔTm [38]: -0.06 °C
- ΔTm [39]: 0.56 °C
- ΔTm [40]: 0.46 °C and -0.03 °C
- ΔTm [41]: 0.46 °C
- ΔTm [42]: 1.83 °C
- ΔTm [43]: 0.37 °C
- ΔTm [44]: -0.18 °C
- ΔTm [45]: 0.34 °C
- ΔTm [46]: 10.2 °C
- ΔTm [47]: 0.96 °C
- inhibition [48]: 35.5% and 42.4%
- ΔTm [49]: 1.11 °C
- ΔTm [50]: 0.26 °C and 0.07 °C
SMILES: COc1ccc(CCc2nc3cc(-c4c(C)noc4C)ccc3n2C[C@H](C)N2CCOCC2)cc1Cl
